Earlier results as cited in patent US7056538B2, “Disinfectant solution based on sodium hypochlorite, and process for preparing it” (Aziende Chimiche Riunite Angelini Francesco A.C.R.A.F. …, priority 2001, dated 2006).

Conditions: 25° C.

dissociation constant pKa: 7.49
SMILES: OCl [hypochlorous acid]
